Reference: US20250255867A1 (Kadmon Corporation, LLC, priority 2022, published 2025)

How the values were obtained:
Assay type in all cases: in vivo, human
[1] = system: subjects with cGVHD; experiment: Example 2 phase II randomized study: cGVHD response per 2014 NIH Consensus Criteria (best ORR, organ ORR, DOR, time to response); conditions: for Best ORR: mITT
Description: (§1) All responses were assessed by the study site investigators.

[2] = system: patients with cGVHD; experiment: Example 1: Lee cGVHD Symptom Scale (LSS)
Description: All responses were assessed by the investigators.
QOL assessment. […] Thirty-five percent of all patients (37% of responders and 32% of nonresponders) reported a clinically meaningful improvement in LSS score on consecutive assessments.
Change From Baseline in Overall Score on Lee cGvHD Symptom Scale at Specified Time Points. Lee cGVHD symptom scale, a patient-reported symptom scale used to measure symptom burden and has 7 subscales (Skin, Eyes and Mouth, Breathing, Eating and Digestion, Muscles and Joints, Energy, and Mental and Emotional) with ratings as follows: 0—Not at all, 1—Slightly, 2—Moderately, 3—Quite a bit, 4—Extremely, with lower values representing better outcome. Score for each subscale was normalized to a score ranged from 0 to 100, where higher score-worse symptoms. An overall score was calculated as average of these 7 subscales. EOT visit was performed within 3 days after the participant's last dose of study drug. Baseline value was defined as valid and last non-missing value obtained within 28 days prior to participant receiving first study medication. […] Analysis was performed on mITT population. Here, ‘number analyzed’=participants with available data for each specified category. Here, ‘0’ in the number analyzed field signifies that none of the participants were available for the analysis at the specified time points.

[3] = system: subjects with cGVHD; experiment: Example 2: corticosteroid and other immunosuppressant reduction/discontinuation
Description: as §1

[4] = 200 mg BID (n = 66), 42 with organ involved
[5] = 200 mg BID (n = 66), 49 with organ involved
[6] = 200 mg QD (n = 66), 19 with organ involved
[7] = 200 mg daily (n = 66), mITT population
[8] = 200 mg twice daily (n = 66), mITT population
[9] = Total (N = 132), 100 with organ involved
[10] = Total (N = 132), mITT population

CC(C)NC(=O)COc1cccc(-c2nc(Nc3ccc4[nH]ncc4c3)c3ccccc3n2)c1 [Belumosudil, 2-{3-[4-(1H-indazol-5-ylamino)-2-quinazolinyl]phenoxy}-N-(propan-2-yl) acetamide]
PR, Liver ([1]; 200 mg BID (n = 66), 4 with organ involved): 0 n (%) | PR, Upper GI ([1]; 200 mg BID (n = 66), 10 with organ involved): 0 n (%) | PR, Esophagus ([1]; 200 mg BID (n = 66), 12 with organ involved): 0 n (%) | CR, Mouth [1, 4]: 17 (41) n (%) | ORR, Mouth [1, 4]: 24 (57) n (%) | CR, Eyes [1, 5]: 6 (12) n (%) | ORR, Joints and fascia [1, 5]: 33 (67) n (%) | PR, Skin ([1]; 200 mg BID (n = 66), 55 with organ involved): 13 (24) n (%) | PR, Lower GI ([1]; 200 mg QD (n = 66), 6 with organ involved): 0 n (%) | ORR, Upper GI ([1]; 200 mg QD (n = 66), 13 with organ involved): 8 (62) n (%) | CR, Esophagus [1, 6]: 9 (47) n (%) | PR, Esophagus [1, 6]: 0 n (%) | CR, responses occurring within 6 mo of treatment [1, 7]: 2 (3) n (%) | CR, responses occurring within 12 mo of treatment [1, 7]: 4 (6) n (%) | ORR for responses occurring within 6 mo of treatment [1, 7]: 47 (71) n (%) | Best ORR ([1]; 200 mg daily): 74% | CR, responses occurring within 6 mo of treatment [1, 8]: 1 (2) n (%) | CR, responses occurring within 12 mo of treatment [1, 8]: 2 (3) n (%) | ORR [1, 8]: 51 (77) n (%) | ORR for responses occurring within 12 mo of treatment [1, 8]: 50 (76) n (%) | PR, responses occurring within 6 mo of treatment [1, 8]: 47 (71) n (%) | PR, responses occurring within 12 mo of treatment [1, 8]: 48 (73) n (%) | Best ORR ([1]; 200 mg twice daily): 77% | Median increase in FEV1, lung CR based on normalization of FEV1 ([1]; 3 subjects, range, 18-25): 23% | PR, Esophagus ([1]; Total (N = 132), 31 with organ involved): 0 n (%) | CR, Eyes ([1]; Total (N = 132), 97 with organ involved): 14 (14) n (%) | CR, Joints and fascia [1, 9]: 20 (20) n (%) | ORR, Joints and fascia [1, 9]: 71 (71) n (%) | PR, Joints and fascia [1, 9]: 51 (51) n (%) | CR, Skin ([1]; Total (N = 132), 110 with organ involved): 18 (16) n (%) | CR, responses occurring within 6 mo of treatment [1, 10]: 3 (2) n (%) | CR, responses occurring within 12 mo of treatment [1, 10]: 6 (5) n (%) | PR, responses occurring within 6 mo of treatment [1, 10]: 92 (70) n (%) | PR, responses occurring within 12 mo of treatment [1, 10]: 93 (71) n (%) | Best ORR in subjects refractory to their last lines of therapy ([1]; in vivo): 75% | ORR, prior ruxolitinib therapy subgroup ([1]; pooled arms, n=38): 68% | ORR, prior ibrutinib therapy subgroup ([1]; pooled arms, n=46): 74% | Median increase in FEV1, all subjects achieving lung PR ([1]; range, 0-15): 10% | Overall median time to response ([1]; range, 4-66): 5 weeks | Median DOR ([1]; responder population): 54 weeks | Clinically significant improvement (LSS), nonresponder ([2]; Cohort 1 200 mg QD): 1/6 (17, 0.4 to % | Clinically significant improvement (LSS), responder ([2]; Cohort 1 200 mg QD): 8/11 (73, 39 to % | Clinically significant improvement (LSS), overall ([2]; Cohort 1 200 mg QD, decrease ≥7 points): 9 (53, 28 to 77) % | Clinically significant improvement (LSS), nonresponder ([2]; Cohort 2 200 mg BID): 4/5 (80, 28 to % | Clinically significant improvement (LSS), overall ([2]; Cohort 2 200 mg BID): 7 (44, 20 to 70) % | Clinically significant improvement (LSS), responder ([2]; Cohort 2 200 mg BID): 3/11 (27, 6 to % | Clinically significant improvement (LSS), nonresponder ([2]; Cohort 3 400 mg QD): 2/8 (25, 3 to % | Clinically significant improvement (LSS), overall ([2]; Cohort 3 400 mg QD): 11 (52, 30 to % | Clinically significant improvement (LSS), responder ([2]; Cohort 3 400 mg QD): 9/13 (69, 39 to % | Clinically significant improvement (LSS), nonresponder ([2]; Total): 7/19 (37, 16 to % | Clinically significant improvement (LSS), responder ([2]; Total): 20/35 (57, 39 to % | Clinically significant improvement (LSS), overall ([2]; Total N=54, listed as KD025): 27 (50, 36 to % | Clinically significant improvement (LSS), overall ([2]; Total N=54, listed as belumosudil): 50% | Mean change in CS dose from baseline, Nonresponder ([3]; 200 mg daily): −22% | Mean change in CS dose from baseline, Responder ([3]; 200 mg daily): −49% | CS discontinuation [3, 7]: 13 (20) n (%) | Mean change in CS dose from baseline, Overall [3, 7]: −43% | Median CS reduction from baseline to greatest reduction [3, 7]: 38% | Proportion with CS reduction [3, 7]: 42 (64) n (%) | Mean change in CS dose from baseline, Nonresponder ([3]; 200 mg twice daily): −10% | Mean change in CS dose from baseline, Responder ([3]; 200 mg twice daily): −58% | Mean change in CS dose from baseline, Overall [3, 8]: −48% | Median CS reduction from baseline to greatest reduction [3, 8]: 50% | Mean change in CS dose from baseline, Nonresponder ([3]; Total): −16% | Mean change in CS dose from baseline, Responder ([3]; Total): −54% | Mean change in CS dose from baseline, Overall [3, 10]: −45% | Median CS reduction from baseline to greatest reduction [3, 10]: 50% | Subjects who discontinued CNI therapy ([3]; in vivo): 22% | Subjects who discontinued mycophenolate mofetil ([3]; in vivo): 21% | Subjects who discontinued sirolimus ([3]; in vivo): 20% | Mean corticosteroid dose reduction ([3]; mITT): 45% | Mean corticosteroid dose reduction ([3]; responders): 54%
